The subject of assay [1] is Raji, human Burkitts lymphoma cells. In words: Cell-MTS cellular proliferation assay, Raji. The format is cell-based. The settings on record: Homo sapiens, 168 hr incubation. As for the experimental part: (§1) A colorimetric cellular proliferation assay (Cell-MTS assay) was performed to assess the ability of the heterocyclic derivative […] inhibitors disclosed herein to effect the proliferation of established cancer cell lines.
(§2) The Cell-MTS assay is a 7-day plate-based colorimetric assay which quantifies the amount of newly generated NADH in the presence or absence of test compound. The NADH level is used for the quantification of cancer cell proliferation.
(§3) Established cancer cell lines with a variety of driving mutations were obtained from American Type Culture Collection (ATCC) and routinely passaged according to ATCC protocols. For routine assay, these cells were seeded at densities which enabled ˜90% confluence after 7 days of culture. Raji, human Burkitts lymphoma cells, (cMYC) were seeded at 15,000 cells per 96-well. HL-60, human proleukemia cells, (NRAS, p16, p53, c-Myc amplified) were seeded at 5,000 cells per 96-well. NCI-H460, human non-small cell lung cancer cells. (KRAS, PIK3CA, STLK11, p16) were seeded at 3,000 cells per 96-well. 24 hr after plating, cells received an 11 point dilution of test compound with final concentration ranges from 100 µM to 2.0 nM. Cells were incubated in the presence of compound for 168 hr at 37° C., and 5% CO2. At the end of this incubation period, 80 µL of media is removed and 20 µL of CellTiter 96® AQueous Non-Radioactive Cell Proliferation Assay solution (Promega) was added. The cells were incubated until the OD490 was >0.6. IC50 values were calculated using the IDBS XLfit software package and include background subtracted OD490 values and normalization to DMSO controls. Cellular proliferation IC50 values were uploaded and archived using the Chem Biography Platform. Table 3 provides the results of the in vitro enzyme inhibition assay experiments and the in vitro cell-based assay experiments performed with the compounds disclosed herein: […]

The target of another assay is BRD4(BD1) (Homo sapiens (Human), UniProt O60885). Briefly: In vitro enzyme inhibition assay (BRD4 AlphaScreen, H4-tetraacetyl peptide). Particulars: BRD4(BD1) 2 nM, peptide 15 nM. The format is binding. As for the experimental part: Determination of the IC50 for the heterocyclic derivative BRD4 inhibitors disclosed herein was performed as follows. His-tagged […] was cloned, expressed and purified to homogeneity. Filipakopoulos et al., 468 Nature 1067 (2010). BRD4 binding and inhibition was assessed by monitoring the interaction of biotinylated H4-tetraacetyl peptide (AnaSpec, H4K5/8/12/16(Ac), biotin—labeled) with the target using the AlphaScreen technology (Life Technologies). In a 384-well ProxiPlate BRD4(BD1) (2 nM final) was combined with peptide (15 nM final) in 50 mM HEPES (pH 7.3), 10 mM NaCl, 0.25 mM TCEP, 0.1% (w/v) BSA, and 0.005% (w/v) Brij-35 either in the presence of DMSO (final 0.4% DMSO) or compound dilution series in DMSO. After 20 min incubation at RT, Alpha streptavidin donor beads and Nickel Chelate acceptor beads were added to a final concentration of 5 μg/mL. After 2 hr of equilibration, plates were read on an Envision instrument and the IC50 was calculated using a four parameter non-linear curve fit.
The ability of the compounds disclosed herein to inhibit BRD4 activity was quantified and the respective IC50 value was determined.
Background: In Alpha technology, singlet oxygen from a donor bead excites a nearby acceptor bead.

In assay [2] the test system is HL-60, human proleukemia cells. Briefly: Cell-MTS cellular proliferation assay, HL-60. The class given is cell-based. Particulars: Homo sapiens, HL-60 cells, 168 hr incubation. On the procedure:
as §1, §2, §3
For orientation: Tetrazolium dyes change colour on reduction, which living cells bring about.

Assay [3] concerns NCI-H460, human non-small cell lung cancer cells. In words: Cell-MTS cellular proliferation assay, NCI-H460. Particulars: Homo sapiens, 168 hr incubation. The format is cell-based. As for the experimental part:
as §1, §2, §3

The pIC50 is the IC50 on a negative log10 scale, so that one unit is a factor of ten.

Molecules are shown by their SMILES. pIC50: −log10 of the molar value.

With `CCS(=O)(=O)Nc1cc(-c2cc(C)c(=O)n(C)c2)cc2c1nnn2Cc1ccc(F)cc1` [Example 28, N-[6-(1,5-dimethyl-6-oxopyridin-3-yl)-1-[(4-fluorophenyl)methyl]benzotriazol-4-yl]ethanesulfonamide], the pIC50 in assay [1] was at least 6.30; at BRD4(BD1) it was at least 6.30; in assay [2], at least 6.30; in assay [3], 5.30 to 6.30.
For the molecule `Cn1cc(-c2cc3c(S(C)(=O)=O)nn(C)c3cc2OCC2CC2)c2ccccc2c1=O` [Example 29, 4-[6-(cyclopropylmethoxy)-1-methyl-3-methylsulfonylindazol-5-yl]-2-methylisoquinolin-1-one], the pIC50 in assay [1] is at least 6.30; on BRD4(BD1) it was at least 6.30; in assay [2], at least 6.30; in assay [3] it was 5.30 to 6.30.
Consider `CCS(=O)(=O)c1nn(C)c2cc(OCC3CC3)c(-c3cn(C)c(=O)c4ccccc34)cc12` [Example 30, 4-[6-(cyclopropylmethoxy)-3-ethylsulfonyl-1-methylindazol-5-yl]-2-methylisoquinolin-1-one], for which the negative logarithm of the IC50 (pIC50) in assay [1] is at least 6.30; at BRD4(BD1), at least 6.30; in assay [2], at least 6.30; in assay [3], 5.30 to 6.30.
In the case of `Cc1cc(-c2cc(NS(C)(=O)=O)c3ncn(Cc4ccccc4)c3c2)cn(C)c1=O` [Example 31, N-[1-benzyl-6-(1,5-dimethyl-6-oxopyridin-3-yl)benzimidazol-4-yl]methanesulfonamide], the negative-log IC50 (pIC50) in assay [1] was at least 6.30; against BRD4(BD1), at least 6.30; in assay [2], at least 6.30; in assay [3], 5.30 to 6.30.
Turning to `Cc1cc(-c2cc(NS(C)(=O)=O)c3ncn(Cc4cccc(F)c4)c3c2)cn(C)c1=O` [Example 32, N-[6-(1,5-dimethyl-6-oxopyridin-3-yl)-1-[(3-fluorophenyl)methyl]benzimidazol-4-yl]methanesulfonamide], the negative-log IC50 (pIC50) in assay [1] is at least 6.30; against BRD4(BD1), at least 6.30; in assay [2] it was at least 6.30; in assay [3], 5.30 to 6.30.
Regarding `CCS(=O)(=O)Nc1cc(-c2cc(C)c(=O)n(C)c2)cc2c1ncn2Cc1cccc(F)c1` [Example 33, N-[6-(1,5-dimethyl-6-oxopyridin-3-yl)-1-[(3-fluorophenyl)methyl]benzimidazol-4-yl]ethanesulfonamide], the negative logarithm of the IC50 (pIC50) in assay [1] was at least 6.30; on BRD4(BD1), at least 6.30; in assay [2] it was at least 6.30; in assay [3] it was 5.30 to 6.30.
`Cc1cc(-c2cc(NS(C)(=O)=O)c3nc(C)n(Cc4ccccc4)c3c2)cn(C)c1=O` [Example 34, N-[1-benzyl-6-(1,5-dimethyl-6-oxopyridin-3-yl)-2-methylbenzimidazol-4-yl]methanesulfonamide]: the negative-log IC50 (pIC50) in assay [1] was at least 6.30; against BRD4(BD1), at least 6.30; in assay [2], at least 6.30; in assay [3], under 5.30.
Consider `Cc1cc(-c2cc(NS(C)(=O)=O)c3nc(C)n(Cc4cccc(F)c4)c3c2)cn(C)c1=O` [Example 35, N-[6-(1,5-dimethyl-6-oxopyridin-3-yl)-1-[(3-fluorophenyl)methyl]-2-methylbenzimidazol-4-yl]methanesulfonamide], for which the pIC50 in assay [1] was at least 6.30; against BRD4(BD1) it was at least 6.30; in assay [2], at least 6.30; in assay [3], 5.30 to 6.30.
On to `CCS(=O)(=O)Nc1cc(-c2cc(C)c(=O)n(C)c2)cc2c1nc(C)n2Cc1cccc(F)c1` [Example 36, N-[6-(1,5-dimethyl-6-oxopyridin-3-yl)-1-[(3-fluorophenyl)methyl]-2-methylbenzimidazol-4-yl]ethanesulfonamide], for which the negative-log IC50 (pIC50) (in assay [1]; at BRD4(BD1); in assay [2]; in assay [3]) was at least 6.30 throughout.
As for `Cc1cc(-c2cc(NS(C)(=O)=O)c3nc(C)n(Cc4ccc(F)cc4)c3c2)cn(C)c1=O` [Example 37, N-[6-(1,5-dimethyl-6-oxopyridin-3-yl)-1-[(4-fluorophenyl)methyl]-2-methylbenzimidazol-4-yl]methanesulfonamide], the negative-log IC50 (pIC50) in assay [1] was at least 6.30; against BRD4(BD1), at least 6.30; in assay [2] it was at least 6.30; in assay [3], 5.30 to 6.30.
Regarding `COc1cc(-c2cc(NS(C)(=O)=O)c3nc(C)n(Cc4ccc(F)cc4)c3c2)cn(C)c1=O` [Example 38, N-[1-[(4-fluorophenyl)methyl]-6-(5-methoxy-1-methyl-6-oxopyridin-3-yl)-2-methylbenzimidazol-4-yl]methanesulfonamide], the negative logarithm of the IC50 (pIC50) is at least 6.30 in assay [1], at least 6.30 against BRD4(BD1), at least 6.30 in assay [2] and under 5.30 in assay [3].
As for `Cc1cc(-c2cc(NS(C)(=O)=O)c3nc(C)n(CC4CC4)c3c2)cn(C)c1=O` [Example 39, N-[1-(cyclopropylmethyl)-6-(1,5-dimethyl-6-oxopyridin-3-yl)-2-methylbenzimidazol-4-yl]methanesulfonamide], the pIC50 was at least 6.30 in assay [1], at least 6.30 against BRD4(BD1), at least 6.30 in assay [2] and under 5.30 in assay [3].
Turning to `CCCCn1cnc2c(NS(=O)(=O)CC)cc(-c3cc(C)c(=O)n(C)c3)cc21` [Example 40, N-[1-butyl-6-(1,5-dimethyl-6-oxopyridin-3-yl)benzimidazol-4-yl]ethanesulfonamide], the negative-log IC50 (pIC50) in assay [1] was at least 6.30; against BRD4(BD1), at least 6.30; in assay [2] it was at least 6.30; in assay [3], under 5.30.
On to `CCS(=O)(=O)Nc1cc(-c2cc(C)c(=O)n(C)c2)cc2c1ncn2Cc1ccc(F)cc1F` [Example 41, N-[1-[(2,4-difluorophenyl)methyl]-6-(1,5-dimethyl-6-oxopyridin-3-yl)benzimidazol-4-yl]ethanesulfonamide], for which the negative logarithm of the IC50 (pIC50) in assay [1] was at least 6.30; against BRD4(BD1), at least 6.30; in assay [2] it was at least 6.30; in assay [3], 5.30 to 6.30.
On to `CCS(=O)(=O)Nc1cc(-c2cc(C)c(=O)n(C)c2)cc2c1cnn2Cc1ccccc1` [Example 42, N-[1-benzyl-6-(1,5-dimethyl-6-oxopyridin-3-yl)indazol-4-yl]ethanesulfonamide], for which the negative-log IC50 (pIC50) is at least 6.30 in assay [1], at least 6.30 against BRD4(BD1), at least 6.30 in assay [2] and 5.30 to 6.30 in assay [3].
In the case of `CCS(=O)(=O)Nc1cc(-c2cc(C)c(=O)n(C)c2)cc2c1cnn2Cc1ccc(F)cc1` [Example 43, N-[6-(1,5-dimethyl-6-oxopyridin-3-yl)-1-[(4-fluorophenyl)methyl]indazol-4-yl]ethanesulfonamide], the pIC50 (in assay [1]; against BRD4(BD1); in assay [2]; in assay [3]) was at least 6.30 in each case.
In the case of `Cc1cc(-c2cc(NS(C)(=O)=O)c3nc(C)n([C@@H](C)c4ccccc4)c3c2)cn(C)c1=O` [Example 44, N-[6-(1,5-dimethyl-6-oxopyridin-3-yl)-2-methyl-1-[(1S)-(1-phenylethyl)]benzimidazol-4-yl]methanesulfonamide], the pIC50 is at least 6.30 in assay [1], at least 6.30 at BRD4(BD1), at least 6.30 in assay [2] and 5.30 to 6.30 in assay [3].
Take `COC[C@@H](C)n1c(C)nc2c(NS(C)(=O)=O)cc(-c3cc(C)c(=O)n(C)c3)cc21` [Example 46, N-[6-(1,5-dimethyl-6-oxopyridin-3-yl)-1-[(2R)-1-methoxypropan-2-yl]-2-methylbenzimidazol-4-yl]methanesulfonamide]: the pIC50 is at least 6.30 in assay [1], at least 6.30 on BRD4(BD1), at least 6.30 in assay [2] and under 5.30 in assay [3].
Take `CCS(=O)(=O)Nc1cc(-c2cc(C)c(=O)n(C)c2)c2oc(C3CC3)nc2c1` [Example 47, N-[2-cyclopropyl-7-(1,5-dimethyl-6-oxopyridin-3-yl)-1,3-benzoxazol-5-yl]ethanesulfonamide]: the pIC50 in assay [1] was at least 6.30; against BRD4(BD1) it was at least 6.30; in assay [2] it was at least 6.30; in assay [3] it was under 5.30.

The values above are taken from patent US10807982B2, “Bromodomain inhibitors” (CELGENE QUANTICEL RESEARCH, INC., priority 2015, dated 2020).
